Data published in ChEMBL document CHEMBL1131097, “2-Deoxy derivative is a partial agonist of the intracellular messenger inositol 3,4,5,6-tetrakisphosphate in the epithelial cell line T84” (J Med Chem, 1998).

Tests used:
T84 [1] = assay: Inhibition of calcium-mediated chloride secretion in the intestinal epithelial cell line T84 by measuring short circuit current at 400 uM concentration; Maximum; format: functional, cell-based; details: Homo sapiens
T84 [2] = assay: Inhibition of calcium-mediated chloride secretion in the intestinal epithelial cell line T84 by measuring short circuit current at 200 uM concentration; Ineffective; format: functional, cell-based; details: Homo sapiens

CCCCO[C@@H]1C[C@H](OP(=O)(OCOC(C)=O)OCOC(C)=O)[C@@H](OP(=O)(OCOC(C)=O)OCOC(C)=O)[C@H](OP(=O)(OCOC(C)=O)OCOC(C)=O)[C@H]1OP(=O)(OCOC(C)=O)OCOC(C)=O (racemic)
inhibition (T84 [1]): Ineffective | inhibition (T84 [2]): Ineffective
